What all share (type): physicochemical
Series [1] in a line: Atomic force microscopy of peptide self-assembly. As to conditions: ultrapure water, 0.25 mg/mL. On the procedure: To confirm the self-assembly of β-tetrapeptides 1 and 2 into fibres, atomic force microscopy (AFM) was performed on a Nanoscope IV AFM with a Multimode head using a vertical engage ‘E’ scanner. A 2 μL peptide solution in MilliQ (ultrapure) water (0.25 mg/mL) was prepared and placed on a clean mica surface. A low concentration of peptide was necessary to avoid contamination the probe. The peptide solution was air-dried for 30 minutes, followed by further drying with a stream of N2 gas. Images were obtained under tapping mode with NSC-15 ‘B’ silicon cantilevers (Micromasch, Tallinn, Estonia) with a nominal force constant of 40 and 20 N/m for 1 and 2, respectively. Topographic, phase and amplitude images at a resolution of 512×512 were simultaneously obtained using scan frequency of 1 Hz with typical scan sizes of 5 μm×5 μm and 2 μm×2 μm. Images were processed with a sequence of plane fitting and offset flattening using Gwyddion 2.29 (www.gwyddion.net) software.

Series [2] is described as follows: Inversion test for hydrogel formation (gelation). Conditions: for Gelation result: 37° C., 24 hours. Here is the method: An inversion test was used to qualitatively assess different solvent conditions and concentrations of 1 and 2 for forming a non-flowing, self-supporting stable hydrogel (Liebman, T., et al., 2007). Peptide solubility was tested using a variety of solvents and solvent mixtures: MilliQ (ultrapure) water, phosphate buffered saline (PBS) 1× (Sigma P3813), PBS 10× (Sigma P3813) and Dulbecco's Modified Eagle's Medium/Nutrient Mixture F-12 Ham (DMEM/F12) (Sigma D8437). 100 μL or 50 μL of solvent was added to 0.5 mg of peptide in a glass vial to achieve a final concentration of 5 or 10 mg/mL, respectively. The solution was vortexed up to 30 mins until all the peptide particles had dissolved and left to self-assemble and gelate for 30 minutes at room temperature.

A short description of series [3]: Rheological characterisation (parallel plate rheometer). As to conditions: strain sweep 1% to 100% over 20 minutes, 1 Hz, 37° C. Here is the method:
Rheological measurements were undertaken using an Anton Paar Physical parallel plate rheometer at 37° C. Hydrogels were prepared in 75% MilliQ Water/25% DMEM/F12 using 10 mg/mL of the following: 100% 1, 50% 1/50% 2, and 100% 2. The hydrogel solutions were made just prior to experiment and vortexed thoroughly, and then immediately pipetted onto the base. A top plate with diameter 8 mm was lowered to form a measurement gap size of 0.1 mm. In an oscillatory time sweep test, the storage (elastic, G′) and loss (viscous, G″) moduli were measured with strain applied at 1% at a constant frequency of 1 Hz. For the cyclic step-strain test, after 20 minutes, the strain was increased to 100% for 1 minute to mechanically shear the hydrogel before it is returned to 1% strain. This was repeated an additional 2 times. The plateau modulus was calculated as the average of the storage modulus at the end of each 20-minute gelation cycle. A strain sweep was conducted from 1% to 100% strain over the 20 minutes with a constant frequency of 1 Hz. The gel-to-sol transition point was determined at the strain at which the storage and loss modulus equalled in value. A dynamic frequency sweep was performed from 0.01 to 10 Hz with a constant strain of 1%. All measurements were obtained in triplicate and all figures are presented as the average of those triplicates.

Where [4] appears, read: 50% MilliQ Water/50% DMEM/F12, 5 mg/mL.
Setting [5] is: 50% MilliQ Water/50% DMEM/F12, 10 mg/mL.
Where [6] appears, read: 75% MilliQ Water/25% DMEM/F12, 5 mg/mL.
The mark [7] stands for this setting: 75% MilliQ Water/25% DMEM/F12, 10 mg/mL.

“Also recorded” adds a separate entry of the source. Bounds are passed on as bounds.

With `CCCCCCCCCCCCCC(=O)NCC(CC(=O)NC(C)CC(=O)NC(CCCCN)CC(=O)NC1COC(=O)C1)NC(C)=O` (stereo not drawn) [compound 1, Ac-Az(Myr)AKS*-Lac], in series [1], the “entanglement of the fibres (AFM)” value is “propensity for the nanofibres to aggregate together and form bundles”. The “spontaneous self-assembly into fibres (AFM)” value in series [1] is reported as “distinct nanofibres”. Further, the “time within which the hydrogel reverts back to a solution” value in series [2] (1:1 MilliQ Water and DMEM/F12, both 5 and 10 mg/mL) was at most 24 h. The “duration of stable hydrogel under physiological conditions” value in series [2] (3:1 MilliQ Water:DMEM/F12, 10 mg/mL) was “over several weeks”. The Gelation result is on record as “Unstable gel” in series [2] (setting [4]); “Unstable gel” in series [2] (setting [5]); “Unstable gel” in series [2] (setting [6]); “long-lasting stable hydrogel; also recorded: Stable gel” in series [2] (setting [7]); “Liquid (liquid (has the same flow as water))” in series [2] (DMEM/F12, 5 mg/mL); “Poor dissolution” in series [2] (DMEM/F12, 10 mg/mL). The Gelation result is reported as “Liquid (liquid (has the same flow as water))” in series [2] (MilliQ water, 5 mg/mL); “more viscous solution; also recorded: Viscous liquid” in series [2] (MilliQ water, 10 mg/mL); “Viscous liquid” in series [2] (PBS 1×, 5 mg/mL); “prevented the peptide from being completely dissolved; also recorded: Poor dissolution” in series [2] (PBS 1×, 10 mg/mL); “Viscous liquid” in series [2] (PBS 10×, 5 mg/mL); “prevented the peptide from being completely dissolved; also recorded: Poor dissolution” in series [2] (PBS 10×, 10 mg/mL). In series [2] (MilliQ water, both 5 and 10 mg/mL), the peptide dissolution result is recorded as “readily dissolved”.

With `CCCCCCCCCCCCCC(=O)NCC(CC(=O)NC(C)CC(=O)NC(CC(=O)NC1COC(=O)C1)C(=O)NCCNC(=O)C(CC(=O)O)NC(=O)CNC(=O)C(CCCNC(=N)N)NC(C)=O)NC(C)=O` (stereo not drawn) [compound 2, Ac-Az(Myr)AX(RGD)S*-Lac], the “entanglement of the fibres (AFM)” value in series [1] is “more wide-spread and mesh-like”. Also, the “spontaneous self-assembly into fibres (AFM)” value in series [1] is “distinct nanofibres”. Besides, the peptide dissolution entry in series [2] (5 mg/mL, MilliQ water, PBS 1×, PBS 10×, DMEM and 50% MQ Water/50% DMEM/F12) is “readily dissolved”. Further, the Gelation result in series [2] (setting [4]) is “liquid solution; also recorded: Liquid (liquid (has the same flow as water))”; in series [2] (setting [5]), “Unstable gel”; in series [2] (setting [6]), “Unstable gel”; in series [2] (setting [7]), “Stable gel”; in series [2] (DMEM/F12, 5 mg/mL), “liquid solution; also recorded: Liquid (liquid (has the same flow as water))”; in series [2] (DMEM/F12, 10 mg/mL) it was “Unstable gel”. Further, the Gelation result in series [2] (MilliQ water, 5 mg/mL) is reported as “liquid solution; also recorded: Liquid (liquid (has the same flow as water))”; in series [2] (MilliQ water, 10 mg/mL), “Liquid (liquid (has the same flow as water))”; in series [2] (PBS 1×, 5 mg/mL), “liquid solution; also recorded: Liquid (liquid (has the same flow as water))”; in series [2] (PBS 1×, 10 mg/mL) it was “Viscous liquid”; in series [2] (PBS 10×, 5 mg/mL), “liquid solution; also recorded: Liquid (liquid (has the same flow as water))”; in series [2] (PBS 10×, 10 mg/mL), “Poor dissolution”. In series [3], the “Strain for gel-to-sol Transition” value was 31%.

These data come from patent US20260108612A1, “BETA-PEPTIDES AND BETA-PEPTIDE HYDROGELS” (MONASH UNIVERSITY, priority 2022, published 2026).
